This note sets out measurements from ChEMBL document CHEMBL1201862, “PubChem BioAssay data set” (2004).

Molecules are shown by their SMILES.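 Five compound concentrations were applied to cells in 96-well plates for 48 hours; endpoints were derived by simple linear interpolation of the resulting dose-response curve. The concentration for 50% growth inhibition is given as GI50.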 Calls of active or inactive are those of the source. Rule as the data show it: active = GI50 up to about 1.1 µM and inactive = higher. Bounds are passed on as bounds.

Test systems include SK-MEL-5; KM-20L2; NCI-H23; COLO 205; HCC 2998; A549; M14; TK-10; UACC-257; OVCAR-4; LOX IMVI; SNB-19; KM12; OVCAR-5; OVCAR-8; MCF7; NCI/ADR-RES; BT-549; T47D; HOP-92.
Assay in all cases: NCI anticancer screen, dose series, 48 h

Take `C/C(O)=C1\CC2CN3CCc4c([nH]c5ccccc45)C3CC2CC1=O` (centres undefined): the GI50 was 55.2 µM (inactive) in the test on SK-MEL-5; 92 µM (inactive) in the test with KM-20L2; 92 µM (inactive) in the test on NCI-H23; > 100 µM (inactive) in the test on COLO 205; 58.9 µM (inactive) with HCC 2998; > 100 µM (inactive) in the test with A549. Further, the GI50 was 49.4 µM (inactive) in the test with M14; > 100 µM (inactive) with TK-10; > 100 µM (inactive) in the test on UACC-257; 46 µM (inactive) with OVCAR-4; 26.1 µM (inactive) in the test on LOX IMVI; > 100 µM (inactive) with SNB-19. For the same compound, the values for the GI50 with KM12, with OVCAR-5 and in the test with OVCAR-8 were > 100 µM (inactive), 70 µM (inactive) and 89.1 µM (inactive), respectively.
Consider `CC(C)(C)OC(=O)N1CC(CCl)c2ccc(O)cc21` (centres undefined), for which the GI50 is 0.753 µM (active) with MCF7; 1.35 µM (inactive) with SK-MEL-5; 1.04 µM (active) with NCI-H23; 1.81 µM (inactive) with COLO 205; 1.59 µM (inactive) in the test with NCI/ADR-RES; 0.0223 µM (active) in the test on HCC 2998. Moreover, the GI50 with BT-549 was 1.97 µM (inactive); in the test on A549 it was 3.12 µM (inactive); in the test with T47D it was 3.03 µM (inactive); in the test on M14 it was 1.72 µM (inactive); in the test with HOP-92, 2.42 µM (inactive); in the test with TK-10, 2.4 µM (inactive). Further, the GI50 with UACC-257 is 2.01 µM (inactive); in the test with OVCAR-4 it was 0.267 µM (active); in the test with LOX IMVI, 1.76 µM (inactive); with SNB-19, 3.32 µM (inactive); in the test with KM12, 2.1 µM (inactive); with OVCAR-5, 3.27 µM (inactive). The GI50 in the test on OVCAR-8 was 3.59 µM (inactive).
Turning to `COCOC1/C=C/CCCCC(=O)C(C)C#CC1` (centres undefined), the GI50 in the test on MCF7 is 3.89 µM (inactive); in the test with SK-MEL-5, 8.87 µM (inactive); in the test on NCI-H23, 4.63 µM (inactive); in the test on COLO 205, 2.51 µM (inactive); with NCI/ADR-RES, 4.18 µM (inactive); with HCC 2998, 7.89 µM (inactive). Moreover, the GI50 in the test with BT-549 was 6.97 µM (inactive); with A549, 12.9 µM (inactive); with T47D it was 2.76 µM (inactive); in the test on M14, 3.72 µM (inactive); with HOP-92, 3.1 µM (inactive); in the test on TK-10, 8 µM (inactive). Also, the GI50 is 5.65 µM (inactive) with UACC-257; 10.2 µM (inactive) with OVCAR-4; 2.19 µM (inactive) in the test with LOX IMVI; 17.8 µM (inactive) in the test on SNB-19; 7.4 µM (inactive) with KM12; 12.8 µM (inactive) in the test with OVCAR-5. Besides, the GI50 in the test on OVCAR-8 was 4.18 µM (inactive).
Take `Cc1cc(C)nc(NS(=O)(=O)c2ccc(NC(=O)c3cccc4c(Nc5ccc(S(=O)(=O)N=C(N)N)cc5)c5ccc(Cl)cc5nc34)cc2)n1`: the GI50 was 59 µM (inactive) with KM-20L2; 30.8 µM (inactive) in the test with NCI-H23; 19.8 µM (inactive) in the test with HCC 2998; > 100 µM (inactive) in the test on M14; 40 µM (inactive) in the test with TK-10; 20.2 µM (inactive) in the test on UACC-257. In addition, the GI50 in the test on LOX IMVI is 19.8 µM (inactive); in the test with SNB-19, 23.1 µM (inactive); in the test on KM12 it was 30.5 µM (inactive); in the test on OVCAR-5, > 100 µM (inactive); in the test on OVCAR-8, 39.4 µM (inactive).
With `CC(=O)C(=Cc1ccc(C=C(C(C)=O)C(C)=O)cc1)C(C)=O`, the GI50 with MCF7 is 1.87 µM (inactive); with SK-MEL-5 it was 1.9 µM (inactive); with NCI-H23, 1.93 µM (inactive); in the test with COLO 205, 1.7 µM (inactive); in the test with NCI/ADR-RES it was 2.28 µM (inactive); in the test on HCC 2998, 4.81 µM (inactive). The GI50 in the test on BT-549 is 2.05 µM (inactive); in the test with A549 it was 2.93 µM (inactive); in the test with T47D, 3.05 µM (inactive); in the test on M14 it was 1.34 µM (inactive); in the test on HOP-92, 2.12 µM (inactive); with TK-10, 2.22 µM (inactive). Besides, the GI50 in the test with UACC-257 was 1.92 µM (inactive); with OVCAR-4 it was 1.9 µM (inactive); in the test with LOX IMVI, 0.57 µM (active); with SNB-19, 2.1 µM (inactive); in the test on KM12, 0.12 µM (active); in the test on OVCAR-5, 2.79 µM (inactive). The GI50 in the test with OVCAR-8 is 2.05 µM (inactive).
For `CSc1c(C)[n+]([O-])c2cc(Cl)c(Cl)cc2[n+]1[O-]`, the GI50 with MCF7 was 19 µM (inactive); in the test on SK-MEL-5, 17.7 µM (inactive); in the test with NCI-H23, 16.2 µM (inactive); with COLO 205, 15.5 µM (inactive); in the test on NCI/ADR-RES, 17.8 µM (inactive); in the test on HCC 2998 it was 18.8 µM (inactive). Besides, the GI50 in the test with BT-549 is 18.3 µM (inactive); in the test with A549, > 100 µM (inactive); in the test on T47D, 20.8 µM (inactive); with M14, 19.8 µM (inactive); in the test on HOP-92, 16.2 µM (inactive); in the test with TK-10, 20.6 µM (inactive). Further, the GI50 is 17.9 µM (inactive) with UACC-257; 16.4 µM (inactive) in the test with OVCAR-4; 17.9 µM (inactive) in the test with LOX IMVI; > 86.9 µM (inactive) in the test on SNB-19; 31.4 µM (inactive) in the test with KM12; 17.4 µM (inactive) in the test on OVCAR-5. In the test on OVCAR-8, the GI50 was 16.6 µM (inactive).
On to `COC(=O)C(c1n[nH]c2ccccc12)C(C(=O)OC)c1n[nH]c2ccccc12` (centres undefined), for which the GI50 with KM-20L2 is > 100 µM (inactive); in the test with NCI-H23, 30.9 µM (inactive); in the test with HCC 2998 it was > 100 µM (inactive); with A549, > 100 µM (inactive); with M14, 32.1 µM (inactive); in the test on TK-10, > 100 µM (inactive). Also, the GI50 in the test on UACC-257 was 54.7 µM (inactive); in the test with OVCAR-4, 18.8 µM (inactive); in the test on LOX IMVI it was 68.2 µM (inactive); in the test with SNB-19, > 100 µM (inactive); with KM12, > 100 µM (inactive); in the test on OVCAR-5, > 100 µM (inactive). The GI50 in the test on OVCAR-8 was 24.8 µM (inactive).
In the case of `Cc1c(C(=O)CC(=O)C(=O)Nc2ccc(Cl)cc2)[n+]([O-])c2ccccc2[n+]1[O-]`, the GI50 in the test on SK-MEL-5, with KM-20L2, with NCI-H23, with COLO 205, in the test on A549 and in the test with M14 was > 100 µM (inactive) each time. In addition, the GI50 with HOP-92, in the test with TK-10, in the test on UACC-257, in the test on OVCAR-4, with SNB-19 and with KM12 was > 100 µM (inactive) in each case. In addition, the GI50 in the test on OVCAR-5 and in the test on OVCAR-8 was > 100 µM (inactive) throughout.
Turning to `CC(C)(C)N/N=C(\C(=O)Nc1nnc(S)[nH]1)C1C(=O)Nc2ccccc2[S+]1[O-]` (centres undefined), the GI50 in the test with SK-MEL-5, in the test on KM-20L2, in the test on NCI-H23, in the test with COLO 205, in the test on HCC 2998 and in the test with A549 was > 100 µM (inactive) each time. The GI50 in the test with M14, with TK-10, in the test with UACC-257, in the test on OVCAR-4, in the test with LOX IMVI and in the test on SNB-19 was > 100 µM (inactive) in each case. Moreover, the GI50 in the test with KM12, in the test with OVCAR-5 and in the test with OVCAR-8 was > 100 µM (inactive) in each case.
